{"source": "paper PMC9151804", "about": "“Carotenoid binding in Gloeobacteria rhodopsin provides insights into divergent evolution of xanthorhodopsin types” (Communications Biology, 2022)", "assay_in_all_cases": "co-expression in E. coli, purification, chromophore extraction and absorbance", "assay_type_in_all_cases": "binding", "conditions_in_all_cases": "all-trans-retinal-bound protein; 0.02% DDM, 150 mM NaCl, 50 mM Tris, pH 7.0", "key": {"[1]": {"target": "T1, Gloeobacter rhodopsin (GR) (Gloeobacter violaceus, UniProt Q7NP59, S181G)", "T1 construct": "gene gll0198", "T1 sequence (Q7NP59 entry or part of it S181G)": "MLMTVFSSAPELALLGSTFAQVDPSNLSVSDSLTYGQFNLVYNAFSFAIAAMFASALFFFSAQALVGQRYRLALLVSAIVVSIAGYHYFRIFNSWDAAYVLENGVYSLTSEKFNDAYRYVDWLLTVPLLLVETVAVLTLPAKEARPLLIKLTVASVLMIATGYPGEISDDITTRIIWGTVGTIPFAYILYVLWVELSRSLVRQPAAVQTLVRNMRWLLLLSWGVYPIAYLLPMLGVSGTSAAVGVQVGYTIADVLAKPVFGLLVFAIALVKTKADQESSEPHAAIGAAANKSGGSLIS"}, "[2]": {"target": "T2, Gloeobacter rhodopsin (GR) (Gloeobacter violaceus, UniProt Q7NP59, T179G/T182G)", "T2 construct": "gene gll0198", "T2 sequence (Q7NP59 entry or part of it T179G/T182G)": "as the sequence (Q7NP59 entry or part of it S181G) above, with T179G, G181S, T182G counted along it"}, "[3]": {"target": "T3, Gloeobacter rhodopsin (GR) (Gloeobacter violaceus, UniProt Q7NP59, S221G)", "T3 construct": "gene gll0198", "T3 sequence (Q7NP59 entry or part of it S221G)": "as the sequence (Q7NP59 entry or part of it S181G) above, with G181S, S221G counted along it"}, "[4]": {"target": "T4, Gloeobacter rhodopsin (GR) (Gloeobacter violaceus, UniProt Q7NP59, P226G/I227G)", "T4 construct": "gene gll0198", "T4 sequence (Q7NP59 entry or part of it P226G/I227G)": "as the sequence (Q7NP59 entry or part of it S181G) above, with G181S, P226G, I227G counted along it"}, "[5]": {"target": "T5, Gloeobacter rhodopsin (GR) (Gloeobacter violaceus, UniProt Q7NP59)", "T5 construct": "gene gll0198", "T5 sequence (Q7NP59 1-298)": "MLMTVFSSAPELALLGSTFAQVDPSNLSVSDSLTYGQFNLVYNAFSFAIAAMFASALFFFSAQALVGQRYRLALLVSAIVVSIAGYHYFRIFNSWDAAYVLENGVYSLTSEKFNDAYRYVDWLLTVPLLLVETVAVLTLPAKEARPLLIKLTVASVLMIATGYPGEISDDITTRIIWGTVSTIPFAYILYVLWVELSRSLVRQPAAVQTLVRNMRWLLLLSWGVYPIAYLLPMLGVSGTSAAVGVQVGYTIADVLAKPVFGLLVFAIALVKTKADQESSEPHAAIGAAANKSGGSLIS"}, "[6]": {"target": "T6, Gloeobacter rhodopsin (GR) (Gloeobacter violaceus, UniProt Q7NP59, P226G)", "T6 construct": "gene gll0198", "T6 sequence (Q7NP59 entry or part of it P226G)": "as the sequence (Q7NP59 entry or part of it S181G) above, with G181S, P226G counted along it"}, "[7]": {"target": "T7, Gloeobacter rhodopsin (GR) (Gloeobacter violaceus, UniProt Q7NP59, G178W)", "T7 construct": "gene gll0198", "T7 sequence (Q7NP59 entry or part of it G178W)": "as the sequence (Q7NP59 entry or part of it S181G) above, with G178W, G181S counted along it"}, "[8]": {"target": "T8, Gloeobacter rhodopsin (GR) (Gloeobacter violaceus, UniProt Q7NP59, I227G)", "T8 construct": "gene gll0198", "T8 sequence (Q7NP59 entry or part of it I227G)": "as the sequence (Q7NP59 entry or part of it S181G) above, with G181S, I227G counted along it"}, "[9]": {"target": "T9, Gloeobacter rhodopsin (GR) (Gloeobacter violaceus, UniProt Q7NP59, T179G)", "T9 construct": "gene gll0198", "T9 sequence (Q7NP59 entry or part of it T179G)": "as the sequence (Q7NP59 entry or part of it S181G) above, with T179G, G181S counted along it"}, "[10]": {"target": "T10, Gloeobacter rhodopsin (GR) (Gloeobacter violaceus, UniProt Q7NP59, T179G/T182G/F185G)", "T10 construct": "gene gll0198", "T10 sequence (Q7NP59 entry or part of it T179G/T182G/F185G)": "as the sequence (Q7NP59 entry or part of it S181G) above, with T179G, G181S, T182G, F185G counted along it"}, "[11]": {"target": "T11, Gloeobacter rhodopsin (GR) (Gloeobacter violaceus, UniProt Q7NP59, F185G)", "T11 construct": "gene gll0198", "T11 sequence (Q7NP59 entry or part of it F185G)": "as the sequence (Q7NP59 entry or part of it S181G) above, with G181S, F185G counted along it"}}, "data": [{"smiles": "CC1=C(/C=C/C(C)=C/C=C/C(C)=C/C=C/C=C(C)/C=C/C=C(C)/C=C/C2=C(C)C(=O)CCC2(C)C)C(C)(C)CCC1=O", "note": "[canthaxanthin]", "values": [{"measurement": "carotenoid/retinal binding ratio", "setting": "[1]", "result": "All mutants critical affect the carotenoid binding but not S181G"}, {"measurement": "carotenoid/retinal binding ratio", "setting": "[2]", "result": "~ 19%"}, {"measurement": "carotenoid/retinal binding ratio", "setting": "[3]", "result": "~ 69%"}, {"measurement": "carotenoid/retinal binding ratio", "setting": "[4]", "result": "~ 29%"}, {"measurement": "carotenoid/retinal binding ratio", "setting": "[5]", "result": "~ 87%"}, {"measurement": "carotenoid/retinal binding ratio", "setting": "[6]", "result": "~ 48%"}, {"measurement": "carotenoid binding", "setting": "[7]", "result": "with retinal and carotenoid showed no carotenoid binding in the absorption spectrum"}, {"measurement": "carotenoid/retinal binding ratio", "setting": "[8]", "result": "~ 42%"}, {"measurement": "carotenoid/retinal binding ratio", "setting": "[9]", "result": "~ 41%"}, {"measurement": "carotenoid/retinal binding ratio", "setting": "[10]", "result": "~ 5%"}, {"measurement": "carotenoid/retinal binding ratio", "setting": "[11]", "result": "~ 37%"}]}]}
